In patent US4430324A (priority 1982, dated 1984):
Read-outs that look alike come from different tables or passages of the source.

How the values were obtained:
[1] = tested on: S. sanguis 10557; conditions: for ID/50 (recalculated as ppm F): 1440 min; for IC50: read-out: ID/50
[2] = tested on: S. mutans OMZ-176; conditions: for ID/50 (recalculated as ppm F): 1440 min; for IC50: read-out: ID/50
[3] = tested on: S. sanguis 10556; conditions: for ID/50 (recalculated as ppm F): 1440 min; for IC50: read-out: ID/50
[4] = tested on: L. casei; conditions: for ID/50 (recalculated as ppm F): 1440 min; for IC50: read-out: ID/50
[5] = tested on: S. salivarius SS4; conditions: for ID/50 (recalculated as ppm F): 1440 min; for IC50: read-out: ID/50
[6] = tested on: S. salivarius H-257; conditions: for ID/50 (recalculated as ppm F): 1440 min; for IC50: read-out: ID/50
[7] = pH of solution; format: physicochemical
[8] = tested on: cariogenic bacteria; test: inhibition of bacterial growth, overall findings; conditions: all bacterial isolates tested
[9] = tested on: S. mutans 6715; conditions: for ID/50 (recalculated as ppm F): 1440 min; for IC50: read-out: ID/50
[10] = tested on: artificial plaque; test: in vitro antiplaque study; format: cell-based, clinical plaque samples; conditions: for Percentage Inhibition of Growth of Artificial Plaque: means ±95% confidence limits
Description: The in vitro plaque was initiated on uniformly sized aluminum plummets which were previously coated for 20 min. with wax stimulated whole saliva. These coated plummets were then placed in a Trypticase (B.B.L.) 1% sucrose growth medium inoculated with clinical plaque samples. After 5 hours of incubation at 37° C. the plummets were immersed in a solution containing equal volumes of whole saliva and the test compound for one minute and subsequently suspended overnight (37° C.) in a 20% solution of saliva supernatant. On the second day the plummets were retreated with the test solution (1 min.) and reincubated in inoculated Trypticase-sucrose growth medium for 5 hours. After this period of time the plaques were rinsed in distilled water for 5 minutes. The plaques were then removed from the plummets by sonication in 10 ml distilled water and quantitated in a Unicam SP500 spectrophotometer at 570 nm.
Five replicas per test compound were examined.

N.N.[F-].[F-].[F-].[F-].[F-].[F-].[Sn] [Sn(NH4)2 F6, stannic ammonium fluoride]
ID/50 (recalculated as ppm F) ([1]; Table III, S. sanguis 10557): 45 ppm F | IC50 ([1]; Table II, fluoride salts, S. sanguis 10557, means of triplicate experiments): 390 µM | ID/50 (recalculated as ppm F) ([2]; Table III, S. mutans OMZ-176): 163 ppm F | IC50 ([2]; Table II, fluoride salts, S. mutans OMZ-176, means of triplicate experiments): 1430 µM | ID/50 (recalculated as ppm F) ([3]; Table III, S. sanguis 10556): 25 ppm F | IC50 ([3]; Table II, fluoride salts, S. sanguis 10556, means of triplicate experiments): 220 µM | ID/50 (recalculated as ppm F) ([4]; Table III, L. casei): 288 ppm F | IC50 ([4]; Table II, fluoride salts, L. casei, means of triplicate experiments): 2530 µM | ID/50 (recalculated as ppm F) ([5]; Table III, S. salivarius SS4): 188 ppm F | IC50 ([5]; Table II, fluoride salts, S. salivarius SS4, means of triplicate experiments): 1650 µM | ID/50 (recalculated as ppm F) ([6]; Table III, S. salivarius H-257): 46 ppm F | IC50 ([6]; Table II, fluoride salts, S. salivarius H-257, means of triplicate experiments): 400 µM | pH values in solution [7]: ~3.8 | inhibition of bacterial growth [8]: less active than the stannous form SnF2 | ID/50 (recalculated as ppm F) ([9]; Table III, S. mutans 6715): 137 ppm F | IC50 ([9]; Table II, fluoride salts, S. mutans 6715, means of triplicate experiments): 1200 µM

[Cl][Sn][Cl] [SnCl2]
IC50 [1]: 1880 µM | IC50 [2]: 3680 µM | IC50 [3]: 1270 µM | IC50 [4]: 3000 to 6000 µM | IC50 [5]: 1450 µM | IC50 [6]: 3640 µM | IC50 [9]: 2260 µM

[Fe] [Fe]
inhibition of bacterial growth [8]: little or no effect

[Mg] [Mg]
inhibition of bacterial growth [8]: little or no effect

O=S(=O)([O-])[O-].[Zn+2] [ZnSO4]
IC50 [1]: 400 µM | IC50 [2]: 7500 µM | IC50 [3]: 360 µM | IC50 [4]: 10400 µM | IC50 [5]: 6000 µM | IC50 [6]: 750 µM | antiplaque activity ([10]; 6.0-30.0 mM/L zinc): no difference in activity between ZnSO4 and ZnNH4 F3 | Percentage Inhibition of Growth of Artificial Plaque ([10]; zinc conc. 6.0 mM/L): 47 ± 14% | Percentage Inhibition of Growth of Artificial Plaque ([10]; zinc conc. 15.0 mM/L): 51 ± 14% | Percentage Inhibition of Growth of Artificial Plaque ([10]; zinc conc. 30.0 mM/L): 64 ± 14% | IC50 [9]: 5740 µM

[Cl-].[Na+] [Na]
inhibition of bacterial growth [8]: little or no effect

[Cl-].[Cl-].[Co+2] [CoCl2]
IC50 [1]: 3840 µM | IC50 [2]: 10600 µM | IC50 [3]: 2890 µM | IC50 [4]: > 12000 µM | IC50 [5]: 5960 µM | IC50 [6]: 550 µM | IC50 [9]: 7720 µM

[Ca] [Ca]
inhibition of bacterial growth [8]: little or no effect

[Mn] [Mn]
inhibition of bacterial growth [8]: little or no effect

SnF2
ID/50 (recalculated as ppm F) [1]: 32 | IC50 [1]: 840 µM | ID/50 (recalculated as ppm F) [2]: 87 | IC50 [2]: 2280 µM | ID/50 (recalculated as ppm F) [3]: 17 | IC50 [3]: 440 µM | ID/50 (recalculated as ppm F) [4]: 113 | IC50 [4]: 2970 µM | ID/50 (recalculated as ppm F) [5]: 93 | IC50 [5]: 2450 µM | % Reduction in Dissolution (pH 4): 57% | % Reduction in Dissolution (pH 5): 54% | % Reduction in Dissolution (pH 6): 45% | % Reduction in Dissolution (pH 7): 43% | ID/50 (recalculated as ppm F) [6]: 29 | IC50 [6]: 740 µM | ID/50 (recalculated as ppm F) [9]: 56 | IC50 [9]: 1500 µM

Al2 (SO4)3
IC50 [1]: 8450 µM | IC50 [2]: 5910 µM | IC50 [3]: 5550 µM | IC50 [4]: 6450 µM | IC50 [5]: 7800 µM | IC50 [6]: 5400 µM | IC50 [9]: 3560 µM
